Reference: the NIST ThermoML archive (doi:10.1021/je301284x)
Numbers after ± are expanded uncertainties.

Assays:
[1] = Molar enthalpy of transition or fusion; details: Crystal; DSC
[2] = for mass density / electrical conductivity / viscosity: 101.33 kPa, Liquid; for mass density: Vibrating tube method; for viscosity: Concentric cylinders viscometry; for Normal melting temperature: Crystal; for Normal melting temperature / Glass transition temperature: DTA

Structure (SMILES) | Molar enthalpy of transition or fusion [1] | mass density ([2]; 293.15 K) | mass density ([2]; 298.15 K) | electrical conductivity ([2]; 303.15 K) | viscosity ([2]; 303.15 K) | mass density ([2]; 303.15 K) | mass density ([2]; 308.15 K) | mass density ([2]; 313.15 K) | electrical conductivity ([2]; 323.15 K) | viscosity ([2]; 323.15 K) | electrical conductivity ([2]; 343.15 K) | viscosity ([2]; 343.15 K) | electrical conductivity ([2]; 363.15 K) | viscosity ([2]; 363.15 K) | electrical conductivity ([2]; 383.15 K) | viscosity ([2]; 383.15 K) | electrical conductivity ([2]; 403.15 K) | electrical conductivity ([2]; 423.15 K) | electrical conductivity ([2]; 443.15 K) | Normal melting temperature [2] | other results
CC[NH+](C)CC.O=S(=O)([O-])C(F)(F)F [diethylmethylammonium trifluoromethanesulfonate] | 3.82 ± 0.478 kcal/mol | 1292 ± 27 kg/m3 | 1284 ± 27 kg/m3 | 0.833 ± 0.017 S/m | 36.9 ± 1.2 mPa·s | 1277 ± 27 kg/m3 | 1270 ± 27 kg/m3 | 1262 ± 26 kg/m3 | 1.45 ± 0.03 S/m | 19.4 ± 0.6 mPa·s | 2.15 ± 0.04 S/m | 12.1 ± 0.4 mPa·s | 3.15 ± 0.06 S/m | 8.13 ± 0.26 mPa·s | 3.91 ± 0.08 S/m | 5.82 ± 0.19 mPa·s | 4.73 ± 0.09 S/m | 5.46 ± 0.11 S/m | 5.97 ± 0.12 S/m | -6.00 ± 1 °C | mass density ([2]; 288.15 K): 1299 ± 27 kg/m3; viscosity ([2]; 403.15 K): 4.41 ± 0.14 mPa·s; viscosity ([2]; 423.15 K): 3.48 ± 0.11 mPa·s
CCC[NH+](CC)CC.O=S(=O)([O-])C(F)(F)F [N,N-diethylpropan-1-aminium trifluoromethanesulfonate] | 5.02 ± 0.478 kcal/mol | 1229 ± 26 kg/m3 | 1222 ± 26 kg/m3 | 0.384 ± 0.008 S/m | 54.3 ± 1.8 mPa·s | 1215 ± 25 kg/m3 | 1208 ± 25 kg/m3 | 1201 ± 25 kg/m3 | 0.71 ± 0.014 S/m | 26.8 ± 0.9 mPa·s | 1.13 ± 0.02 S/m | 15.3 ± 0.5 mPa·s | 1.71 ± 0.03 S/m | 9.76 ± 0.32 mPa·s | 2.22 ± 0.04 S/m | 6.71 ± 0.22 mPa·s | 2.88 ± 0.06 S/m | 3.57 ± 0.07 S/m | 4.31 ± 0.09 S/m | -14.00 ± 1 °C | mass density ([2]; 288.15 K): 1237 ± 26 kg/m3; viscosity ([2]; 403.15 K): 4.87 ± 0.16 mPa·s; viscosity ([2]; 423.15 K): 3.73 ± 0.12 mPa·s
C=CC[NH+](C)C.O=S(=O)([O-])C(F)(F)F [N,N-dimethylprop-2-en-1-aminium trifluoromethanesulfonate] | 5.02 ± 0.478 kcal/mol | 1311 ± 28 kg/m3 | 1303 ± 27 kg/m3 | 0.968 ± 0.019 S/m | 28.8 ± 0.9 mPa·s | 1295 ± 27 kg/m3 | 1288 ± 27 kg/m3 | 1280 ± 27 kg/m3 | 1.74 ± 0.04 S/m | 16.4 ± 0.5 mPa·s | 2.65 ± 0.05 S/m | 10.4 ± 0.3 mPa·s | 3.73 ± 0.07 S/m | 7.11 ± 0.23 mPa·s | 4.92 ± 0.1 S/m | 5.18 ± 0.17 mPa·s | 6.19 ± 0.12 S/m | 7.48 ± 0.15 S/m | 8.82 ± 0.18 S/m | 16.00 ± 1 °C | mass density ([2]; 288.15 K): 1318 ± 28 kg/m3; viscosity ([2]; 403.15 K): 3.95 ± 0.13 mPa·s; viscosity ([2]; 423.15 K): 3.17 ± 0.1 mPa·s
CCC[NH+](C)C.O=S(=O)([O-])C(F)(F)F [N,N-dimethylpropan-1-aminium trifluoromethanesulfonate] | 4.78 ± 0.478 kcal/mol | 1284 ± 27 kg/m3 | 1276 ± 27 kg/m3 | 0.901 ± 0.018 S/m | 33.2 ± 1.1 mPa·s | 1269 ± 27 kg/m3 | 1262 ± 26 kg/m3 | 1254 ± 26 kg/m3 | 1.57 ± 0.03 S/m | 18 ± 0.6 mPa·s | 2.39 ± 0.05 S/m | 11 ± 0.4 mPa·s | 3.25 ± 0.07 S/m | 7.42 ± 0.24 mPa·s | 4.29 ± 0.09 S/m | 5.32 ± 0.17 mPa·s | 5.3 ± 0.11 S/m | 6.4 ± 0.13 S/m | 7.68 ± 0.15 S/m | 20.00 ± 1 °C | mass density ([2]; 288.15 K): 1291 ± 27 kg/m3; viscosity ([2]; 403.15 K): 4.04 ± 0.13 mPa·s; viscosity ([2]; 423.15 K): 3.19 ± 0.1 mPa·s
CCC[NH+](C)CCC.O=S(=O)([O-])C(F)(F)F [N-methyl-N-propylpropan-1-aminium trifluoromethanesulfonate] | 3.35 ± 0.478 kcal/mol | 1218 ± 25 kg/m3 | 1211 ± 25 kg/m3 | 0.415 ± 0.008 S/m | 48.7 ± 1.6 mPa·s | 1203 ± 25 kg/m3 | 1196 ± 25 kg/m3 | 1189 ± 25 kg/m3 | 0.772 ± 0.015 S/m | 23.9 ± 0.8 mPa·s | 1.23 ± 0.03 S/m | 13.6 ± 0.4 mPa·s | 1.81 ± 0.04 S/m | 8.63 ± 0.28 mPa·s | 2.48 ± 0.05 S/m | 5.96 ± 0.19 mPa·s | 3.18 ± 0.06 S/m | 4.04 ± 0.08 S/m | 4.88 ± 0.1 S/m | 17.00 ± 1 °C | viscosity ([2]; 403.15 K): 4.4 ± 0.14 mPa·s; viscosity ([2]; 423.15 K): 3.44 ± 0.11 mPa·s
C=CC[NH+](CC)CC.O=S(=O)([O-])C(F)(F)F [N,N-diethylprop-2-en-1-aminium trifluoromethanesulfonate] | 5.02 ± 0.478 kcal/mol | 1263 ± 26 kg/m3 | 1255 ± 26 kg/m3 | 0.419 ± 0.008 S/m | 51 ± 1.7 mPa·s | 1247 ± 26 kg/m3 | 1240 ± 26 kg/m3 | 1232 ± 26 kg/m3 | 0.785 ± 0.016 S/m | 25.5 ± 0.8 mPa·s | 1.26 ± 0.03 S/m | 14.9 ± 0.5 mPa·s | 1.81 ± 0.04 S/m | 9.64 ± 0.31 mPa·s | 2.43 ± 0.05 S/m | 6.7 ± 0.22 mPa·s | 3.17 ± 0.06 S/m | 3.91 ± 0.08 S/m | 4.71 ± 0.09 S/m | -14.00 ± 1 °C | mass density ([2]; 288.15 K): 1270 ± 27 kg/m3; viscosity ([2]; 403.15 K): 4.94 ± 0.16 mPa·s; viscosity ([2]; 423.15 K): 3.87 ± 0.13 mPa·s; Glass transition temperature [2]: -99.00 ± 6 °C
C=CC[NH+](C)CC=C.O=S(=O)([O-])C(F)(F)F | 2.63 ± 0.239 kcal/mol | 1261 ± 26 kg/m3 | 1253 ± 26 kg/m3 | 0.469 ± 0.009 S/m | 38.5 ± 1.3 mPa·s | 1246 ± 26 kg/m3 | 1239 ± 26 kg/m3 | 1231 ± 26 kg/m3 | 0.893 ± 0.018 S/m | 19.7 ± 0.6 mPa·s | 1.43 ± 0.03 S/m | 11.6 ± 0.4 mPa·s | 2.06 ± 0.04 S/m | 7.61 ± 0.25 mPa·s | 2.74 ± 0.06 S/m | 5.39 ± 0.18 mPa·s | 3.54 ± 0.07 S/m | 4.39 ± 0.09 S/m | 5.21 ± 0.1 S/m | -19.00 ± 1 °C | mass density ([2]; 288.15 K): 1268 ± 27 kg/m3; Glass transition temperature [2]: -88.00 ± 5 °C
